Results taken from paper PMC12716008 (Chemistry & Biodiversity, 2025).
In brackets after ≈: the same amount, converted by molar mass. Where two headings read alike, the source gives them in different places. Starred links: 1 amine or outer side, 2 acyl side, 3 side chain; linkers in the order of their positions; H or OH if unused. Positions of bridges follow the written chain, without caps; N, C: chain ends. Non-standard residues stand in square brackets, D forms with d. Residues, ends and D or L forms follow the SMILES beside them. Chains are numbered I, II in the order given. Actinocin(9to1) = Cc1c2oc3c(C)ccc(C(=O)[*:1])c3nc-2c(C(=O)[*:2])c(N)c1=O; NMeV = CN[C@H](C(=O)O)C(C)C; Sar = CNCC(=O)O

Experiments:
[1] = test system: Mycobacterium tuberculosis H37Rv (ATCC 27264); experiment: Antimycobacterial activity, microtitre Alamar Blue/Presto Blue assay (MIC); format: cell-based; details: 120 h, read-out: M. tb MIC
[2] = test system: human monocyte (U937) cell line; experiment: Cytotoxicity, Presto Blue cell viability; format: cell-based; details: U-937, 72 h
Procedure: (§1) The human monocyte (U937) and African green monkey kidney (Vero) cell lines were used in this study to determine the cytotoxic potential of the quinoline derivatives. The cell lines were purchased from Separation Scientific SA (Pty) Ltd. (Johannesburg, South Africa) and maintained in Roswell Park Memorial Institute (RPMI) 1640 and Eagle's Minimal Essential Medium (EMEM), supplemented with 10% heat‐inactivated foetal bovine serum (FBS), 1% antibiotics (100 U/mL penicillin and 100 µg/mL streptomycin) and 1% antifungal agent (250 µg/mL amphotericin B) as previously described. The cells were cultured at 37°C, 5% CO2 in a humidified incubator to 80% confluency. Detachment was achieved by rinsing the cells with phosphate buffer saline followed by the addition of trypsin–EDTA (0.25% trypsin containing 0.01% EDTA). After 5 min, the reaction was inhibited through the addition of supplemented media.
(§2) Cell viability was assessed through the method described by Lall et al., using Presto Blue as the viability reagent. The cells were seeded in a flat‐bottom 96‐well plate (100 µL) at a concentration of 1.0 × 10^6 cells/mL and allowed to adhere for 24 h. The samples were prepared in DMSO at a stock concentration of 20 mM, serially diluted in complete media and added to the plate at a final concentration range of 0.78–100 µM. Controls included a vehicle control (2% DMSO), an untreated cell control, a 0% control (no cells) and actinomycin D, as the positive control, at a final test concentration range of 3.9 × 10^−4 to 0.05 µg/mL. Cells were incubated for 72 h, followed by the addition of 20 µL of Presto Blue reagent to all the wells and an additional 2 h incubation. Cell viability was measured using a VICTOR Nivo Multimode Microplate Reader (PerkinElmer) at an excitation/emission wavelength of 540/590 nm.
(§3) All results are presented as the mean ± standard deviation (where applicable) of experiments done in triplicate and in two or three independent experiments (as stated in each methods section). Descriptive analysis was used to directly compare and rank the compounds and derivatives based on their activity in the biological assays. Additionally, by comparing the antibiofilm activity to the antibacterial activity and the antibacterial activity to the cytotoxicity, selectivity indices were used to assess the preferential activity of the compounds.

[3] = test system: African green monkey kidney (Vero) cell line; experiment: Cytotoxicity, Presto Blue cell viability; format: cell-based; details: 72 h, read-out: Vero IC50 ± SD
Procedure: as §1, §2, §3

[4] = test system: Mycobacterium smegmatis (MC^2 155); experiment: Antimycobacterial activity, microtitre Alamar Blue/Presto Blue assay (MIC); format: cell-based; details: Mycolicibacterium smegmatis, read-out: M. smeg MIC
[5] = test system: M. smegmatis biofilm formation; experiment: Mycobacterial biofilm inhibition, microtitre antibiofilm assay (MBIC); format: cell-based, Mycobacterium smegmatis; details: Mycolicibacterium smegmatis, 2–4 days, 37°C, read-out: M. smeg MBIC
[6] = test system: methicillin‐sensitive S. aureus (MSSA) UAMS‐1; experiment: Antistaphylococcal activity, broth microdilution (MIC); format: cell-based; details: Staphylococcus aureus, read-out: MSSA MIC
[7] = test system: methicillin‐resistant S. aureus (MRSA) AH1263 or LAC; experiment: as above; format: cell-based, Staphylococcus aureus; details: 18 h, read-out: MRSA MIC
[8] = test system: MRSA AH1263 or LAC biofilm formation; experiment: Staphylococcal biofilm inhibition, crystal violet microtitre test (MBIC); format: cell-based; details: Staphylococcus aureus, 22 h, read-out: MRSA MBIC
[9] = test system: MSSA UAMS‐1 biofilm formation; experiment: as above; format: cell-based; details: Staphylococcus aureus, 22 h, read-out: MSSA MBIC
[10] = M. tuberculosis H37Rv, 5 days, 37°C
[11] = U937 cells, 72 h, read-out: U937 IC50 ± SD
[12] = Chlorocebus sabaeus, Vero, Vero cells
[13] = MC^2155, M. smegmatis, 24 h, 37°C
[14] = Staphylococcus aureus, MRSA, S. aureus AH1263/LAC

Structure (SMILES)	MIC [1, 10]	IC50 [2, 11]	IC50 [3, 12]	MIC [4, 13]	minimal effective concentration [5]	MIC ([6]; S. aureus UAMS‐1, 18 h)	MIC [7, 14]	minimal effective concentration ([8]; S. aureus AH1263/LAC biofilm)	also measured
CCCCCOc1c(Cl)cc(Cl)c2ccc(C)nc12 [QD‐4]	> 100 µM	> 100 µM	> 100 µM	> 100 µM	> 100 µM	–	–	–	–
CCCCCOc1cccc2cccnc12 [QD‐1]	100 µM (≈ 21.5 µg/mL)	> 100 µM	> 100 µM	> 100 µM	> 100 µM	595 µM (≈ 128 µg/mL)	595 µM (≈ 128 µg/mL)	595 µM	minimal effective concentration ([9]; S. aureus UAMS‐1 biofilm): 595 µM
CCCCCOc1cccc2ccc(C)nc12 [QD‐7]	100 µM (≈ 22.9 µg/mL)	> 100 µM	> 100 µM	> 100 µM	> 100 µM	1120 µM (≈ 256 µg/mL)	1120 µM (≈ 256 µg/mL)	–	–
CC(C)=CCOc1cccc2ccc(C=O)nc12 [QD‐12]	100 µM (≈ 24.1 µg/mL)	> 100 µM	> 100 µM	100 µM (≈ 24.1 µg/mL)	12.5 µM	266 µM (≈ 64.1 µg/mL)	133 µM (≈ 32 µg/mL)	266 µM	minimal effective concentration ([9]; S. aureus UAMS‐1 biofilm): 531 µM
NNC(=O)c1ccncc1 [Isoniazid, reference compound]	0.3 µM (≈ 0.0411 µg/mL)	–	–	–	–	–	–	–	–
Cc1ccc2c(Cl)cc(Cl)c(OCCC(C)C)c2n1 [QD‐5]	> 100 µM	> 100 µM	> 100 µM	> 100 µM	> 100 µM	–	–	–	–
CN[C@H](CC(C)C)C(=O)N[C@H]1C(=O)N[C@@H](CC(N)=O)C(=O)N[C@H]2C(=O)N[C@H]3C(=O)N[C@H](C(=O)N[C@H](C(=O)O)c4cc(O)cc(O)c4-c4cc3ccc4O)[C@H](O)c3ccc(c(Cl)c3)Oc3cc2cc(c3O[C@@H]2O[C@H](CO)[C@@H](O)[C@H](O)[C@H]2O[C@H]2C[C@](C)(N)[C@H](O)[C@H](C)O2)Oc2ccc(cc2Cl)[C@H]1O [Vancomycin, reference compound]	–	–	–	–	–	–	–	–	MIC ([6]; 18 h): 1 µM (≈ 1.45 µg/mL); MIC ([7]; Staphylococcus aureus, MRSA): 1 µM (≈ 1.45 µg/mL)
O=C(O)c1cn(C2CC2)c2cc(N3CCNCC3)c(F)cc2c1=O [Ciprofloxacin, reference compound]	–	–	–	0.6 µM (≈ 0.199 µg/mL)	0.325 µM	–	–	1 µM	minimal effective concentration ([9]; S. aureus UAMS‐1 biofilm): 2 µM
Cc1onc(-c2ccccc2)c1C(=O)N[C@@H]1C(=O)N2[C@@H]1SC(C)(C)[C@@H]2C(=O)O [Oxacillin, reference compound]	–	–	–	–	–	1 µM (≈ 0.401 µg/mL)	64 µM (≈ 25.7 µg/mL)	–	–
CC(C)=CCOc1c(Cl)cc(Cl)c2ccc(C)nc12 [QD‐6]	100 µM (≈ 29.6 µg/mL)	> 100 µM	> 100 µM	> 100 µM	> 100 µM	–	–	256 µM	–
Cc1ccc2c(Cl)cc(Cl)c(O)c2n1 [HQ‐2, 5,7‐dichloro‐8‐hydroxy‐2‐methylquinoline, reference compound]	0.1 µM (≈ 0.0228 µg/mL)	–	< 100 µM	1.56 µM (≈ 0.356 µg/mL)	3.13 µM	2.2 µM (≈ 0.502 µg/mL)	1.1 µM (≈ 0.251 µg/mL)	35.2 µM	IC50 ([3]; Vero cells): 82.8 ± 7.09 µM; minimal effective concentration ([9]; S. aureus UAMS‐1 biofilm): 17.6 µM
Cc1ccc2cccc(O)c2n1 [HQ‐3, 2‐methyl‐8‐hydroxyquinoline, reference compound]	–	–	–	–	–	–	–	–	MIC [1]: 1 µM (≈ 0.159 µg/mL); IC50 ([2]; read-out: U937 IC50 ± SD, U937 cells, 72 h): > 100 µM; IC50 ([3]; Chlorocebus sabaeus, Vero): > 100 µM; MIC ([6]; 18 h): 201 µM (≈ 32 µg/mL); MIC ([7]; Staphylococcus aureus, MRSA): 101 µM (≈ 16 µg/mL); minimal effective concentration [8]: 201 µM; minimal effective concentration [9]: 101 µM; MIC ([4]; MC^2155, 24 h): 6.25 µM (≈ 0.995 µg/mL)
Oc1cccc2cccnc12 [HQ‐1, 8‐hydroxyquinoline, reference compound]	–	–	–	–	–	–	–	–	MIC [1]: 1 µM (≈ 0.145 µg/mL); MIC ([6]; 18 h): 13.8 µM (≈ 2 µg/mL); MIC ([7]; S. aureus AH1263/LAC): 6.90 µM (≈ 1 µg/mL); MIC ([7]; Staphylococcus aureus, MRSA): 6.9 µM (≈ 1 µg/mL); minimal effective concentration [8]: 6.9 µM; minimal effective concentration [9]: 13.8 µM; MIC ([4]; MC^2155, 24 h): 3.13 µM (≈ 0.454 µg/mL)
Cc1ccc2cccc(OCCC(C)C)c2n1 [QD‐8]	100 µM (≈ 22.9 µg/mL)	> 100 µM	> 100 µM	> 100 µM	100 µM	559 µM (≈ 128 µg/mL)	–	–	–
Cc1c2oc3c(C)ccc(C(=O)N[C@@H]4C(=O)N[C@H](C(C)C)C(=O)N5CCC[C@H]5C(=O)N(C)CC(=O)N(C)[C@@H](C(C)C)C(=O)O[C@@H]4C)c3nc-2c(C(=O)N[C@@H]2C(=O)N[C@H](C(C)C)C(=O)N3CCC[C@H]3C(=O)N(C)CC(=O)N(C)[C@@H](C(C)C)C(=O)O[C@@H]2C)c(N)c1=O [Actinomycin D, reference compound] (I: T[dV]P[Sar][NMeV] / II: T[dV]P[Sar][NMeV]; ester I:1-I:C, II:1-II:C; linker I:N-II:N via Actinocin(9to1))	–	–	–	–	–	–	–	–	IC50 ([2]; read-out: U937 IC50 ± SD): 0.002 µM; IC50 ([3]; Chlorocebus sabaeus, Vero): 0.02 µM
CC(C)CCOC(=O)c1ccc2cccc(OCCC(C)C)c2n1 [QD‐11, isopentyl 8‐(isopentyloxy)quinoline‐2‐carboxylate]	100 µM (≈ 32.9 µg/mL)	> 100 µM	70.4 ± 3.99 µM	> 100 µM	> 100 µM	389 µM (≈ 128 µg/mL)	389 µM (≈ 128 µg/mL)	–	–
CCCCCOC(=O)c1ccc2cccc(OCCCCC)c2n1 [QD‐10, pentyl 8‐(pentyloxy)quinoline‐2‐carboxylate]	100 µM (≈ 32.9 µg/mL)	69.48 ± 0.16 µM	84.8 ± 3.42 µM	> 100 µM	> 100 µM	389 µM (≈ 128 µg/mL)	389 µM (≈ 128 µg/mL)	–	–
CC(C)=CCOc1cccc2ccc(C)nc12 [QD‐9]	100 µM (≈ 22.7 µg/mL)	> 100 µM	> 100 µM	> 100 µM	> 100 µM	–	–	–	–
CC(C)CCOc1cccc2cccnc12 [QD‐2]	> 100 µM	> 100 µM	> 100 µM	> 100 µM	> 100 µM	–	1190 µM (≈ 256 µg/mL)	1190 µM	minimal effective concentration ([9]; S. aureus UAMS‐1 biofilm): 1190 µM
